This assay deals with T1, IDO1 (Homo sapiens, UniProt P14902).
T1 construct: Recombinant full-length IDO1 (Seegers, N., et al.) and all other assay components were diluted in IDO1 reaction buffer; made in house
Briefly: Biochemical IDO1 assay (NFK GreenScreen). As to conditions: for IC50: NFK GreenScreen, 25 nM IDO1, 100 μM L-tryptophan, read-out: IC50, inhibitory potency on IDO1. How it is done: Inhibition of IDO1 activity can be measured by determining the enzymatic conversion of L-tryptophan into N-formylkynurenine (NFK) in a reaction mixture containing IDO1 and test compound. The formation of NFK can be detected directly by, for instance, high-performance liquid chromatography (HPLC) methods, or by intrinsic fluorescence.
Compounds were serially diluted in dimethylsulfoxide (DMSO) and finally in IDO1 reaction buffer, consisting of 50 mM NaH2PO4, pH7.0, supplemented with 0.05% Tween-20 (cat. No. P7949; Sigma Aldrich) and 1% glycerol. Recombinant full-length IDO1 (Seegers, N., et al.) and all other assay components were diluted in IDO1 reaction buffer. […] Subsequently, 10 μl of 0.4 mM of the substrate L-tryptophan was added, i.e., the final concentration of L-tryptophan was 100 μM. The DMSO concentration in the assay was 0.3%. […] Incubation was continued for 60 min at room temperature. Then, 10 μl of NFK Green™ (NTRC, Oss, The Netherlands) was added, the plate was sealed, and the reaction was developed for 3 hours at 37° C. To determine the production of N-formyl kynurenine (NFK), the seal was removed and fluorescence was read on an EnVision multimode reader (Perkin Elmer, Waltham, Mass., USA). IC50 were calculated using XLfit™ software (ID Business Solutions, Ltd., Surrey, U.K.).

Values joined by “and” are separate entries in the source; they are usually repeats but may differ in a detail not shown here. Equal values may be shown once.

T1 sequence (P14902 whole entry): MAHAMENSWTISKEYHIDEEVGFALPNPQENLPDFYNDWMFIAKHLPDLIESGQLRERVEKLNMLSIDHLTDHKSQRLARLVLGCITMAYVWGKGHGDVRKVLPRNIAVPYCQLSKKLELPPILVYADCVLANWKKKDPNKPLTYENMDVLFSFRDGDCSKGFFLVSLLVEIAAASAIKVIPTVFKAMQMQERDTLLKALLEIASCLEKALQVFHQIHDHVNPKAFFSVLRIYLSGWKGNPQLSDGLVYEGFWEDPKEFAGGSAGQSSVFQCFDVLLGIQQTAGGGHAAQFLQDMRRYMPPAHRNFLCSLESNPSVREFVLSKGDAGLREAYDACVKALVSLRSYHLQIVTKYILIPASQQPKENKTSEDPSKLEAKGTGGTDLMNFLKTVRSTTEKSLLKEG

One may read the IC50 as the concentration that gives 50% inhibition. For `O=C1CN(C(=O)c2c(F)ccc(-c3ccc(F)s3)c2F)C(c2cc(Br)cs2)N1O` (stereo not shown) [Example 132, 2-(4-Bromo-2-thienyl)-1-[2,6-difluoro-3-(5-fluoro-2-thienyl)benzoyl]-3-hydroxy-imidazolidin-4-one], the IC50 was no more than 1000 nM.
Turning to `O=C1CN(C(=O)c2ccc(C(F)(F)F)cc2F)C(c2cc(Br)cs2)N1O` (stereo not shown) [Example 64, 2-(4-Bromo-2-thienyl)-1-[2-fluoro-4-(trifluoromethyl)benzoyl]-3-hydroxy-imidazolidin-4-one], the IC50 was ≤ 5000 nM and 1000 to 5000 nM.
As to `[2H]c1sc(C2N(O)C(=O)CN2C(=O)c2c(F)cccc2F)cc1Br` (stereo not shown) [Example 111, 2-(4-Bromo-5-deuterio-2-thienyl)-1-(2,6-difluorobenzoyl)-3-hydroxy-imidazolidin-4-one], the IC50 was no more than 1000 nM.
On the same count and under the same terms, to `O=C1CN(C(=O)c2cccnc2Cl)C(c2cc(Br)cs2)N1O` (stereo not shown) [Example 66, 2-(4-Bromo-2-thienyl)-1-(2-chloropyridine-3-carbonyl)-3-hydroxy-imidazolidin-4-one] belongs no more than 1000 nM.
On to `O=C1CN(C(=O)c2c(F)cccc2F)C(c2cc(Br)cs2)N1O` (single isomer, unassigned) [Example 48b, 2-(4-Bromo-2-thienyl)-1-(2,6-difluorobenzoyl)-3-hydroxy-imidazolidin-4-one], for which the IC50 is no more than 1000 nM. The “relative activity of the separated isomers” value (stated in the synthesis examples, assay not named) is reported as “most active isomer”.
With `O=C1CN(C(=O)c2c(F)ccc(-c3ccc(F)cc3)c2F)C(c2cc(Br)cs2)N1O` (stereo not shown) [Example 136, 2-(4-Bromo-2-thienyl)-1-[2,6-difluoro-3-(4-fluorophenyl)benzoyl]-3-hydroxy-imidazolidin-4-one], the IC50 was no more than 1000 nM.
Consider `COc1cc(F)c(C(=O)N2CC(=O)N(O)C2c2cc(Br)cs2)c(F)c1` (stereo not shown) [Example 51, 2-(4-Bromo-2-thienyl)-1-(2,6-difluoro-4-methoxy-benzoyl)-3-hydroxy-imidazolidin-4-one], for which the IC50 was no more than 1000 nM.
Same read-out and setting: to `O=C1CN(C(=O)c2c(F)cc(CCC3CCCCC3)cc2F)C(c2cc(Br)cs2)N1O` (stereo not shown) [Example 92, 2-(4-Bromo-2-thienyl)-1-[4-(2-cyclohexylethyl)-2,6-difluoro-benzoyl]-3-hydroxy-imidazolidin-4-one] belongs ≤ 5000 nM and 1000 to 5000 nM; to `O=C1CN(C(=O)c2ccccc2F)C(c2ccc(Br)s2)N1O` (stereo not shown) [Example 2, 2-(5-Bromo-2-thienyl)-1-(2-fluorobenzoyl)-3-hydroxy-imidazolidin-4-one], no more than 1000 nM.
For the compound `CS(=O)(=O)NCC#Cc1cc(F)c(C(=O)N2CC(=O)N(O)C2c2cc(Br)cs2)c(F)c1` (stereo not shown) [Example 40, N-[3-[4-[2-(4-bromo-2-thienyl)-3-hydroxy-4-oxo-imidazolidine-1-carbonyl]-3,5-difluoro-phenyl]-prop-2-ynyl]methanesulfonamide], the IC50 is no more than 1000 nM.
As for `O=C1CN(C(=O)c2c(F)cccc2F)C(c2cc(I)c(F)s2)N1O` (stereo not shown) [Example 116, 1-(2,6-Difluorobenzoyl)-2-(5-fluoro-4-iodo-2-thienyl)-3-hydroxy-imidazolidin-4-one], the IC50 is no more than 1000 nM.
For the compound `O=C1CN(C(=O)c2c(F)cccc2F)C(c2cc(Br)cs2)N1O` (stereo not shown) [Example 8, 2-(4-Bromo-2-thienyl)-1-(2,6-difluorobenzoyl)-3-hydroxy-imidazolidin-4-one], the IC50 is no more than 1000 nM.
Take `O=C1CN(C(=O)c2c(F)c(F)c(F)c(F)c2F)C(c2cc(Br)cs2)N1O` (stereo not shown) [Example 63, 2-(4-Bromo-2-thienyl)-3-hydroxy-1-(2,3,4,5,6-pentafluorobenzoyl)imidazolidin-4-one]: the IC50 was no more than 1000 nM.
As for `O=C1CN(C(=O)c2ccc(Cl)cc2Cl)C(c2cc(Br)cs2)N1O` (stereo not shown) [Example 68, 2-(4-Bromo-2-thienyl)-1-(2,4-dichlorobenzoyl)-3-hydroxy-imidazolidin-4-one], the half-maximal inhibitory concentration (IC50) was ≤ 5000 nM and 1000 to 5000 nM.
Same read-out and setting: to `CC(=O)NCC#Cc1cc(F)c(C(=O)N2CC(=O)N(O)C2c2cc(Br)cs2)c(F)c1` (stereo not shown) [Example 130, N-[3-[4-[2-(4-Bromo-2-thienyl)-3-hydroxy-4-oxo-imidazolidine-1-carbonyl]-3,5-difluoro-phenyl]prop-2-ynyl]acetamide] belongs no more than 1000 nM.
As to `CS(=O)(=O)NCc1cc(F)c(C(=O)N2CC(=O)N(O)C2c2cc(Br)cs2)c(F)c1` (stereo not shown) [Example 91, N-[[4-[2-(4-Bromo-2-thienyl)-3-hydroxy-4-oxo-imidazolidine-1-carbonyl]-3,5-difluoro-phenyl]methyl]methanesulfonamide], the IC50 was no more than 1000 nM.
With `O=C1CN(C(=O)c2c(F)cc(Br)cc2F)C(c2cc(Br)cs2)N1O` (stereo not shown) [Example 52, 1-(4-Bromo-2,6-difluoro-benzoyl)-2-(4-bromo-2-thienyl)-3-hydroxy-imidazolidin-4-one], the IC50 was no more than 1000 nM.
Consider `Cc1cccc(F)c1C(=O)N1CC(=O)N(O)C1c1cc(Br)cs1` (stereo not shown) [Example 65, 2-(4-Bromo-2-thienyl)-1-(2-fluoro-6-methyl-benzoyl)-3-hydroxy-imidazolidin-4-one], for which the IC50 is no more than 1000 nM.
The same measure, in the same setting: next, `O=C1CN(C(=O)c2c(F)cccc2C(F)(F)F)C(c2csc(Br)c2)N1O` (stereo not shown) [Example 100, 2-(5-Bromo-3-thienyl)-1-[2-fluoro-6-(trifluoromethyl)benzoyl]-3-hydroxy-imidazolidin-4-one]: ≤ 5000 nM and 1000 to 5000 nM.
Take `O=C1CN(Cc2c(F)cccc2F)C(c2cc(Br)cs2)N1O` (stereo not shown) [Example 44, 2-(4-Bromo-2-thienyl)-1-[(2,6-difluorophenyl)methyl]-3-hydroxy-imidazolidin-4-one]: the IC50 was no more than 1000 nM.
With `O=C1CN(C(=O)c2c(F)ccc(B(O)O)c2F)C(c2cc(Br)cs2)N1O` (stereo not shown) [Example 126, [3-[2-(4-Bromo-2-thienyl)-3-hydroxy-4-oxo-imidazolidine-1-carbonyl]-2,4-difluoro-phenyl]boronic acid], the IC50 was ≤ 5000 nM and 1000 to 5000 nM.
On to `O=C1CN(C(=O)c2c(F)cccc2F)C(c2cc(Cl)cs2)N1O` (stereo not shown) [Example 33, 2-(4-Chloro-2-thienyl)-1-(2,6-difluorobenzoyl)-3-hydroxy-imidazolidin-4-one], for which the IC50 was no more than 1000 nM.
The same measure, in the same setting: to `NC1(C#Cc2cc(F)c(C(=O)N3CC(=O)N(O)C3c3cc(Br)cs3)c(F)c2)CC1` (stereo not shown) [Example 89, 1-[4-[2-(1-Aminocyclopropyl)ethynyl]-2,6-difluoro-benzoyl]-2-(4-bromo-2-thienyl)-3-hydroxy-imidazolidin-4-one] belongs no more than 1000 nM; to `CC(C)C#Cc1cc(F)c(C(=O)N2CC(=O)N(O)C2c2cc(Br)cs2)c(F)c1` (stereo not shown) [Example 50, 2-(4-Bromo-2-thienyl)-1-[2,6-difluoro-4-(3-methylbut-1-ynyl)benzoyl]-3-hydroxy-imidazolidin-4-one], no more than 1000 nM; to `C#Cc1cc(F)c(C(=O)N2CC(=O)N(O)C2c2cc(Br)cs2)c(F)c1` (stereo not shown) [Example 38, 2-(4-Bromo-2-thienyl)-1-(4-ethynyl-2,6-difluoro-benzoyl)-3-hydroxy-imidazolidin-4-one], no more than 1000 nM.
`O=C1CN(C(=O)c2c(F)ccc(C(F)(F)F)c2F)C(c2cc(Br)cs2)N1O` (stereo not shown) [Example 76, 2-(4-Bromo-2-thienyl)-1-[2,6-difluoro-3-(trifluoromethyl)benzoyl]-3-hydroxy-imidazolidin-4-one]: the IC50 was no more than 1000 nM.
The same measure, in the same setting: to `O=C1CN(C(=O)c2ccccc2F)C(c2csc(Br)c2)N1O` (stereo not shown) [Example 98, 2-(5-Bromo-3-thienyl)-1-(2-fluorobenzoyl)-3-hydroxy-imidazolidin-4-one] belongs no more than 1000 nM; to `O=C1CN(C(=O)c2c(F)cc(-c3ccccc3)cc2F)C(c2cc(Br)cs2)N1O` (stereo not shown) [Example 85, 2-(4-Bromo-2-thienyl)-1-(2,6-difluoro-4-phenyl-benzoyl)-3-hydroxy-imidazolidin-4-one], no more than 1000 nM.
On to `O=C1CN(C(=O)c2c(F)cccc2F)C(c2ccc(Br)s2)N1O` (stereo not shown) [Example 4, 2-(5-Bromo-2-thienyl)-1-(2,6-difluorobenzoyl)-3-hydroxy-imidazolidin-4-one], for which the IC50 is no more than 1000 nM.
Consider `NCC#Cc1cc(F)c(C(=O)N2CC(=O)N(O)C2c2cc(Br)cs2)c(F)c1` (stereo not shown) [Example 79, 1-[4-(3-Aminoprop-1-ynyl)-2,6-difluoro-benzoyl]-2-(4-bromo-2-thienyl)-3-hydroxy-imidazolidin-4-one], for which the half-inhibitory concentration (IC50) was no more than 1000 nM.
With `N#Cc1csc(C2N(O)C(=O)CN2C(=O)c2c(F)cccc2Cl)c1` (stereo not shown) [Example 29, 5-[1-(2-Chloro-6-fluoro-benzoyl)-3-hydroxy-4-oxo-imidazolidin-2-yl]thiophene-3-carbonitrile], the IC50 was ≤ 5000 nM and 1000 to 5000 nM.
Still for that read-out and setting: next, `O=C1CN(C(=O)c2c(F)cccc2Cl)C(c2csc(Br)c2)N1O` (stereo not shown) [Example 99, 2-(5-Bromo-3-thienyl)-1-(2-chloro-6-fluoro-benzoyl)-3-hydroxy-imidazolidin-4-one]: no more than 1000 nM; `O=C1CN(C(=O)c2c(F)cc(-c3cn[nH]c3)cc2F)C(c2cc(Br)cs2)N1O` (stereo not shown) [Example 96, 2-(4-bromo-2-thienyl)-1-[2,6-difluoro-4-(1H-pyrazol-4-yl)benzoyl]-3-hydroxy-imidazolidin-4-one]: no more than 1000 nM.

These data come from US11053230B2, “3-hydroxy-imidazolidin-4-one compounds as inhibitors of indoleamine 2,3-dioxygenase” (Netherlands Translational Research Center B.V., priority 2017, dated 2021).
